Measurements: ChEMBL document CHEMBL5321293, “Discovery of ERD-3111 as a Potent and Orally Efficacious Estrogen Receptor PROTAC Degrader with Strong Antitumor Activity” (J Med Chem, 2023)
Calls of active or inactive are those of the source. The rule behind the calls is not given here.

Tests used:
[1] = AUC in Sprague-Dawley rat at 3 mg/kg, po and measured upto 24 hrs by LC-MS/MS analysis; type: ADME, organism-based; parameters: dose 3 mg/kg, time < 24 hrs, route po; settings: in vivo; for AUC at 24 h: Sprague-Dawley
[2] = molecular target: T1, Protein cereblon/Estrogen receptor (Homo sapiens, UniProt P03372+Q96SW2); assay: Protac activity at human ERalpha in human MCF7 cells assessed as induction of ERalpha degradation by measuring maximum efficacy at 1 uM incubated for 12 hrs by ICW blot assay relative to control; type: cell-based
Target sequence in this assay (P03372 whole entry, looked up): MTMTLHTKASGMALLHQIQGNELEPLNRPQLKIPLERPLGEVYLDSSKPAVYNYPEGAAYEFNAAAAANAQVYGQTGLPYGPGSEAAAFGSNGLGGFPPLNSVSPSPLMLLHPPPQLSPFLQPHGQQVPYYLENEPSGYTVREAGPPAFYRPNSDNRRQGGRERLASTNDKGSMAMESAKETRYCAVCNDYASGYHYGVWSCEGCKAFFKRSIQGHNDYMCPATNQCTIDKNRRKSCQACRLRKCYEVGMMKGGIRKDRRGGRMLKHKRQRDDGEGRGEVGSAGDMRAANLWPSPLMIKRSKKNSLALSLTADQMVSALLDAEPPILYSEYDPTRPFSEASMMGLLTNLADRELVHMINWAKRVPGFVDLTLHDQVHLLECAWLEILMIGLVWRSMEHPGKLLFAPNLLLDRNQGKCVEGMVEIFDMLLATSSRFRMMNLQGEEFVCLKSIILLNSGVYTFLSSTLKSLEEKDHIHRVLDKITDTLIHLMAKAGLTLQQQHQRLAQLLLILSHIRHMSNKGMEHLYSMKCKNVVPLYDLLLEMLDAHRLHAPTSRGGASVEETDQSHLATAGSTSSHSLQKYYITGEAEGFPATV
Target sequence in this assay (Q96SW2 whole entry, looked up): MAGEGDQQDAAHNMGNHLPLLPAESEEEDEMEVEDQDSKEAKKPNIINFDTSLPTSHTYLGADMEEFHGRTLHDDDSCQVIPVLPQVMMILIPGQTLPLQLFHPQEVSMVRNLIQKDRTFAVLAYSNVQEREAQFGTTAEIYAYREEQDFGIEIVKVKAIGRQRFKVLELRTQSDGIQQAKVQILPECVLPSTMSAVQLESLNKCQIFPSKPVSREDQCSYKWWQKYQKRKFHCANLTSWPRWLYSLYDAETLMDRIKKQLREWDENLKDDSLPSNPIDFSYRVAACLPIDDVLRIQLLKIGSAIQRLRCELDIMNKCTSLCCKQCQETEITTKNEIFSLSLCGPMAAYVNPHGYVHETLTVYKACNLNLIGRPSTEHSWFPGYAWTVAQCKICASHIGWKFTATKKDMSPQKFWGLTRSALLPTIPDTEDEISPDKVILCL

[3] = molecular target: T1, Protein cereblon/Estrogen receptor; assay: Protac activity at human ERalpha in human MCF7 cells assessed as protein degradation incubated for 12 hrs by ICW blot assay; type: cell-based
Target sequence in this assay (P03372 whole entry): as the sequence (P03372 whole entry, looked up) above
Target sequence in this assay (Q96SW2 whole entry): as the sequence (Q96SW2 whole entry, looked up) above

[4] = Volume of distribution at steady state in Sprague-Dawley rat at 1 mg/kg, iv and measured upto 24 hrs by LC-MS/MS analysis; settings: in vivo
[5] = rat, in vivo, po, 3 mg/kg, 24 h
[6] = Half life in Sprague-Dawley rat at 3 mg/kg, po and measured upto 24 hrs by LC-MS/MS analysis; settings: in vivo
[7] = in vivo; settings: Sprague-Dawley, rat, po, 3 mg/kg
[8] = Toxicity in CB17 SCID mouse xenografted with human MCF7 cells harboring ESR1 D538G mutant assessed as body weight change at 30 mg/kg,po qd for 4 weeks; type: organism-based; settings: in vivo, 672 h
[9] = Downregulation of ERalpha protein expression in tumor of CB17 SCID mouse xenografted with human MCF7 cells harboring ESR1 Y537S mutant at 30 mg/kg, po qd for 3 days and measured after 6 hrs last dose by Western blot analysis relative to control; type: functional; settings: time 3 day
[10] = Downregulation of ERalpha protein expression in tumor of CB17 SCID mouse xenografted with human MCF7 cells harboring wild type ESR1 at 30 mg/kg, po qd for 3 days and measured after 24 hrs last dose by Western blot analysis relative to control; type: functional; settings: time 3 day
[11] = Toxicity in CB17 SCID mouse xenografted with human MCF7 cells harboring wild type ESR1 assessed as body weight change at 10 mg/kg,po qd for 5 weeks; type: organism-based; settings: in vivo, 840 h
[12] = tested on: MCF7; assay: Antitumor activity against human MCF7 cells harboring ESR1 D538G mutant xenografted in CB17 SCID mouse assessed as tumor growth inhibition at 30 mg/kg, po qd for 4 weeks; type: functional; settings: MCF7, 672 h, read-out: TGI
[13] = Downregulation of ERalpha protein expression in tumor of CB17 SCID mouse xenografted with human MCF7 cells harboring wild type ESR1 at 30 mg/kg, po qd for 3 days and measured after 3 hrs last dose by Western blot analysis relative to control; type: functional; settings: time 3 day
[14] = tested on: MCF7; assay: Antitumor activity against human MCF7 cells harboring ESR1 D538G mutant xenografted in CB17 SCID mouse assessed as tumor growth inhibition at 30 mg/kg, po qd for 4 weeks and measured 1 week post last dose; type: functional, organism-based
[15] = tested on: MCF7; assay: Antitumor activity against human MCF7 cells harboring ESR1 Y537S mutant xenografted in CB17 SCID mouse assessed as tumor growth inhibition at 30 mg/kg, po qd for 4 weeks and measured 30 days post last dose; type: functional
[16] = Toxicity in CB17 SCID mouse xenografted with human MCF7 cells harboring ESR1 Y537S mutant assessed as body weight change at 30 mg/kg,po qd for 4 weeks; type: organism-based; settings: in vivo, 672 h
[17] = tested on: MCF7; assay: Antitumor activity against human MCF7 cells harboring wild type ESR1 xenografted in CB17 SCID mouse assessed as tumor growth inhibition at 10 mg/kg, po qd for 5 weeks; type: functional; settings: MCF7, 840 h, read-out: TGI
[18] = tested on: MCF7; assay: Antitumor activity against human MCF7 cells harboring ESR1 Y537S mutant xenografted in CB17 SCID mouse assessed as tumor growth inhibition at 30 mg/kg, po qd for 4 weeks; type: functional
[19] = Half life in ICR mouse at 3 mg/kg, po and measured upto 24 hrs by LC-MS/MS analysis; type: ADME, organism-based; settings: in vivo
[20] = Clearance in ICR mouse at 1 mg/kg, iv and measured upto 24 hrs by LC-MS/MS analysis; type: ADME, organism-based; settings: in vivo
[21] = Clearance in Sprague-Dawley rat at 1 mg/kg, iv and measured upto 24 hrs by LC-MS/MS analysis; settings: in vivo
[22] = Cmax in ICR mouse at 3 mg/kg, po and measured upto 24 hrs by LC-MS/MS analysis; type: ADME, organism-based; parameters: dose 3 mg/kg, time < 24 hrs, route po; settings: in vivo
[23] = AUC in ICR mouse at 3 mg/kg, po and measured upto 24 hrs by LC-MS/MS analysis; type: ADME, organism-based; parameters: dose 3 mg/kg, time < 24 hrs, route po; settings: in vivo
[24] = in vivo; settings: Sprague-Dawley, rat, po, 3 mg/kg; remark: listed apart in the source
[25] = Oral bioavailability in ICR mouse at 3 mg/kg and measured upto 24 hrs by LC-MS/MS analysis; type: ADME, organism-based; settings: in vivo
[26] = Volume of distribution at steady state in ICR mouse at 1 mg/kg, iv and measured upto 24 hrs by LC-MS/MS analysis; type: ADME, organism-based; settings: in vivo, read-out: Vdss
[27] = Plasma concentration in Sprague-Dawley rat at 3 mg/kg,po and mesured after 24 hrs by LC-MS/MS analysis; type: ADME, organism-based
[28] = Plasma concentration in Sprague-Dawley rat at 3 mg/kg,po and mesured after 1 hrs by LC-MS/MS analysis; type: ADME, organism-based
[29] = Plasma concentration in Sprague-Dawley rat at 3 mg/kg,po and mesured after 3 hrs by LC-MS/MS analysis; type: ADME, organism-based
[30] = Plasma concentration in Sprague-Dawley rat at 3 mg/kg,po and mesured after 6 hrs by LC-MS/MS analysis; type: ADME, organism-based
[31] = Plasma concentration in Sprague-Dawley rat at 5 mg/kg,po and mesured after 3 hrs by LC-MS/MS analysis; type: ADME, organism-based
[32] = Plasma concentration in Sprague-Dawley rat at 5 mg/kg,po and mesured after 6 hrs by LC-MS/MS analysis; type: ADME, organism-based
[33] = Plasma concentration in Sprague-Dawley rat at 5 mg/kg,po and mesured after 1 hrs by LC-MS/MS analysis; type: ADME, organism-based

SMILES	Emax [2] [%]	DC50 [3] [nM]	Vd at 24 h [4] [L/kg]	half-life at 24 h [6] [h]	Cmax at 24 h [7] [µg/mL]	clearance at 24 h [21] [L/h/kg]	AUC at 24 h [1] [µg·h/mL]	bioavailability at 24 h [24] [%]	other results
O=C1CCC(N2C(=O)c3cc4c(cc3C2=O)CN(CC2CCN(CC3CCN(c5ccc([C@@H]6c7ccc(O)cc7CC[C@@H]6c6ccccc6)cc5)CC3)CC2)C4)C(=O)N1 (stereo not given in full)	79	4.3	55.4	16	0.0249				AUC ([1]; 24 h): 0.399 µg·h/mL; F [5]: 36%
O=C1CC[C@H](N2Cc3cc(N4CCN(CC5CCN(c6ccc([C@@H]7c8ccc(O)cc8CC[C@@H]7c7ccccc7)cc6)CC5)CC4)ccc3C2=O)C(=O)N1 [VEPDEGESTRANT]									Activity [8]: Non-Toxic; Activity [9]: 77%; Activity [10]: 78%; Activity [11]: Non-Toxic; inhibition in vivo at 30 mg/kg [12]: 47%; Activity [13]: 83%; Activity [14]: Active; Activity [15]: Active; Activity [16]: Non-Toxic; inhibition in vivo at 10 mg/kg [17]: 87%; Activity [18]: Active
O=C1CCC(N2C(=O)c3cc4c(cc3C2=O)CN(CC(=O)N2CCC3(CC2)CCN(c2ccc([C@@H]5c6ccc(O)cc6CC[C@@H]5c5ccccc5)cc2)CC3)C4)C(=O)N1 (stereo not given in full)	90	5.5	1.6	2.5	0.0695	1.2	0.328	13	half-life [19]: 3.1 h; clearance [20]: 1.86 L/h/kg; Cmax [22]: 0.146 µg/mL; AUC at 24 h [23]: 0.55 µg·h/mL; bioavailability [25]: 35%; Vd [26]: 2.2 L/kg
O=C1CCC(N2C(=O)c3cc4c(cc3C2=O)CN(CCC2CCN(c3ccc([C@@H]5c6ccc(O)cc6CC[C@@H]5c5ccccc5)cc3)CC2)C4)C(=O)N1 (stereo not given in full)	50	1000							

Further lines, with some results ahead:

Emax [2] [%]	DC50 [3] [nM]	Vd at 24 h [4] [L/kg]	half-life at 24 h [6] [h]	Cmax at 24 h [7] [µg/mL]	clearance at 24 h [21] [L/h/kg]	AUC at 24 h [1] [µg·h/mL]	bioavailability at 24 h [24] [%]	SMILES	other results
107	3.8	3.7	2.3	0.0518	1.62	0.243	14	C[C@@H]1Cc2c(ccc3[nH]ncc23)[C@@H](c2ccc(N3CCC4(CCN(C(=O)CN5Cc6cc7c(cc6C5)C(=O)N(C5CCC(=O)NC5=O)C7=O)CC4)CC3)cn2)N1CC(F)(F)F (stereo not given in full)	
83	0.8							C[C@@H]1Cc2c([nH]c3ccccc23)[C@@H](c2c(F)cc(N3CCC4(CCN(C(=O)CN5Cc6cc7c(cc6C5)C(=O)N(C5CCC(=O)NC5=O)C7=O)CC4)CC3)cc2F)N1CC(C)(C)F (stereo not given in full)	concentration at 24 h [27]: 0.004 µg/mL; concentration at 1 h [28]: 0.0079 µg/mL; concentration at 3 h [29]: 0.0082 µg/mL; concentration at 6 h [30]: 0.0083 µg/mL
95	1.6	2	2.7	0.0406	1.39	0.206	10	O=C1CCC(N2C(=O)c3cc4c(cc3C2=O)CN(C2CCN(C(=O)C3CCN(c5ccc([C@@H]6c7ccc(O)cc7CC[C@@H]6c6ccccc6)cc5)CC3)CC2)C4)C(=O)N1 (stereo not given in full)	
84	2.3	8.8	4	0.0546	1.54	0.552	30	O=C1CCC(N2C(=O)c3cc4c(cc3C2=O)CN(C2CCN(CC3CCN(c5ccc([C@@H]6c7ccc(O)cc7CC[C@@H]6c6ccccc6)cc5)CC3)CC2)C4)C(=O)N1 (stereo not given in full)	half-life [19]: 9.8 h; clearance [20]: 0.852 L/h/kg; Cmax [22]: 0.0933 µg/mL; AUC at 24 h [23]: 1.48 µg·h/mL; bioavailability [25]: 58%; Vd [26]: 16.2 L/kg
106	0.8							C[C@@H]1Cc2c([nH]c3ccccc23)[C@@H](c2c(F)cc(N3CCC4(CCN(C(=O)CN5Cc6cc7c(cc6C5)C(=O)N(C5CCC(=O)NC5=O)C7=O)CC4)CC3)cc2F)N1CC(F)F (stereo not given in full)	concentration at 3 h [31]: 0.014 µg/mL; concentration at 6 h [32]: 0.0103 µg/mL; concentration at 1 h [33]: 0.0083 µg/mL
97	0.1							C[C@@H]1Cc2c([nH]c3ccccc23)[C@@H](c2c(F)cc(N3CCC4(CCN(C(=O)CN5Cc6cc7c(cc6C5)C(=O)N(C5CCC(=O)NC5=O)C7=O)CC4)CC3)cc2F)N1CC(F)(F)CO (stereo not given in full)	concentration at 1 h [28]: 0.0093 µg/mL; concentration at 3 h [29]: 0.0066 µg/mL; concentration at 6 h [30]: 0.003 µg/mL
